Test results as given in paper PMC3119659, “Ligand Activation of the Prokaryotic Pentameric Ligand-Gated Ion Channel ELIC” (PLoS Biology, 2011).
“Also recorded” adds a separate entry of the source. Like-named read-outs stand apart in the source and are kept apart here.

Assays:
Format in all cases: cell-based, Erwinia chrysanthemi
ELIC = target: T1, ELIC (Dickeya chrysanthemi, UniProt P0C7B7); test: cell-based
T1 construct: expressed in transfected cells; host or cells: Xenopus laevis oocytes (cRNA injection, pTLN vector)
Description: To identify ligands that activate ELIC we have expressed the protein in Xenopus laevis oocytes and investigated the response to potential agonists by the two-electrode voltage-clamp technique. Based on the volume and chemical properties of the proposed ligand binding region and the presence of positively charged ions bound to this site, we reasoned that parts of the agonists might have a cationic character. […] Our library included different natural products such as amino acids and their derivatives, metabolites, and related synthetic substances (Figure S3A).
Constructs containing the gene of either the WT channel or point mutants preceded by the signal sequence of the chicken α7nAchR were cloned into the pTLN vector for expression in X. laevis oocytes. After linearization of the plasmid DNA by MluI, capped complementary RNA was transcribed with the mMessage mMachine kit (Ambion) and purified with the RNeasy kit (Qiagen). For expression, 1–50 ng of RNA was injected into defolliculated oocytes. Two-electrode voltage clamp measurements were performed one day after injection at 20°C (OC-725B, Warner Instrument Corp.). […] Cysteamine containing solutions were supplemented with 1 mM DTT.

ELIC V40A = target: T2, ELIC V40A (Dickeya chrysanthemi, UniProt P0C7B7, V40A); test: Two-electrode voltage clamp of ELIC point mutant V40A in oocytes; settings: read-out: EC50 of activation
T2 construct: expressed in transfected cells; host or cells: Xenopus laevis oocytes (cRNA injection, pTLN vector)
Description: (§1) To investigate the role of residues surrounding the bound ligand for channel activation, we have mutated single residues to alanine and we have measured activation with the two-electrode voltage-clamp technique (Table 2). For many mutants there was no response to the addition of cysteamine. This was the case for all investigated residues of the principal site, such as Glu77 and Glu131, that may interact with the primary amino group and hydrophobic and aromatic residues (i.e., Phe187, Phe133, Tyr174, Ile79) that surround the aliphatic carbon atoms of the ligand. The effect of mutations on the complementary side, in contrast, was diverse and in some cases less drastic. The mutations of Phe19 on β-1 and Val40 on β-2 shifted the activation towards higher agonist concentrations (Figure 4B).
(§2) Constructs containing the gene of either the WT channel or point mutants preceded by the signal sequence of the chicken α7nAchR were cloned into the pTLN vector for expression in X. laevis oocytes. After linearization of the plasmid DNA by MluI, capped complementary RNA was transcribed with the mMessage mMachine kit (Ambion) and purified with the RNeasy kit (Qiagen). For expression, 1–50 ng of RNA was injected into defolliculated oocytes. Two-electrode voltage clamp measurements were performed one day after injection at 20°C (OC-725B, Warner Instrument Corp.). Currents were recorded in bath solutions containing 10 mM HEPES (pH 7), 130 mM NaCl, and the respective ligands. Cysteamine containing solutions were supplemented with 1 mM DTT.

ELIC R91A = target: T3, ELIC R91A (Dickeya chrysanthemi, UniProt P0C7B7, R91A); test: Two-electrode voltage clamp of ELIC point mutant R91A in oocytes
T3 construct: expressed in transfected cells; host or cells: Xenopus laevis oocytes (cRNA injection, pTLN vector)
Description: as §1, §2

[1] = WT, pH 7.0, two-electrode voltage clamp, -60 mV, fit to Hill equation, read-out: EC50 of activation of ELIC
[2] = ligand added to the extracellular solution, 10 mM, -60 mV, compared with 2 mM cysteamine
[3] = pH 7.0, averages and s.d. of six measurements

T1 sequence (P0C7B7 whole entry): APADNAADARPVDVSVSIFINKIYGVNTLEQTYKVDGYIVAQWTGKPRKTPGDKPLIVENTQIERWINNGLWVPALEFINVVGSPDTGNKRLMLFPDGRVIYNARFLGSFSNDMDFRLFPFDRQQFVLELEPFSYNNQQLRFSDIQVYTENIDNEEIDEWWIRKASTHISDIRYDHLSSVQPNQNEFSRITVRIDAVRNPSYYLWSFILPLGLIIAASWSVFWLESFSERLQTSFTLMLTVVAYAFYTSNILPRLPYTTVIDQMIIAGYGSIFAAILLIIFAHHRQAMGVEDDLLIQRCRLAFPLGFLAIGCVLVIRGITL
T3 sequence (P0C7B7 whole entry R91A): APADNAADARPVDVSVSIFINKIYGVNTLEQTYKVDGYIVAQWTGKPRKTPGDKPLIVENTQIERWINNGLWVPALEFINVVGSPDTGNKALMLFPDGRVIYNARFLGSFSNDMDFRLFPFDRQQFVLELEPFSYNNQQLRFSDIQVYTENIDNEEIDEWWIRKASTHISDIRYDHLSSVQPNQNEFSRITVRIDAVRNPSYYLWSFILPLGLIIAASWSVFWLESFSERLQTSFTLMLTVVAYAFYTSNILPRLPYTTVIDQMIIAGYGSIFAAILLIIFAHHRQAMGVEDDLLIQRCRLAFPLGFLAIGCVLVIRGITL
T2 sequence (P0C7B7 whole entry V40A): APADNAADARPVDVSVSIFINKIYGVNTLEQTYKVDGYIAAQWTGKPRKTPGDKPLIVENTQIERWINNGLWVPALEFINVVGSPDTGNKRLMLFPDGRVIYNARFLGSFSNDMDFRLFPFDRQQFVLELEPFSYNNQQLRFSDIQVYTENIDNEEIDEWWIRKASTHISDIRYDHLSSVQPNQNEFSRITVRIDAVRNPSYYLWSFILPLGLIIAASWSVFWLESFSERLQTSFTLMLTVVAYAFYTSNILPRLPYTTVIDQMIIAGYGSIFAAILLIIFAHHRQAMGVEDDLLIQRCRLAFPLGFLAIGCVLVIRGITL

Row | Compound | n (Hill coefficient) (ELIC; WT, pH 7.0) | EC50 (ELIC; [1]) | activating current response of ELIC to the ligand (ELIC; [2]) | Imax/Imax cysteamine (ELIC; [3]) | also measured
1 | NCCCCO | 2.9 | 1700 µM | strong activation | 0.98±0.03 | 
2 | NCCC(=O)O [beta-alanine] |  |  |  |  | activating current response of ELIC to the ligand (ELIC): absent
3 | CCCCN [butylamine] |  |  | weak |  | 
4 | NCCCCN [putrescine] |  |  |  |  | EC50 (ELIC): 16000 µM; activating current response of ELIC to the ligand (ELIC): activate ELIC; also recorded: only observed at higher pH; n (Hill coefficient) (ELIC; pH 8): 2.4; n (Hill coefficient), concentration of monovalent putrescine (ELIC; pH 8): 2.4; Imax/Imax cysteamine (ELIC; pH 9): 1.03±0.07
5 | NCCCS [homocysteamine] |  |  | small |  | 
6 | NCCCBr [bromopropylamine] | 3.9 | 1100 µM | opening the channel | 0.71±0.03 | 
7 | CC(C)N [isopropylamine] |  |  | weak |  | 
8 | NCCCCCN [cadaverine] |  |  | not |  | 
9 | aminopropanol | 3.2 | 1200 µM | strong activation | 1.00±0.014 | EC50 (ELIC V40A): > 10000 µM; n (Hill coefficient) (ELIC R91A; mutant R91A): 2.45; fold decrease of the EC50 (ELIC R91A; mutant R91A compared with WT): 2 fold; EC50 (ELIC R91A; mutant R91A, read-out: EC50 of activation): 511 µM
